Experimental data taken from PubChem BioAssay AID1919015 (Molecular Pharmacology Branch, DTP, NCI, 2023).

System: OVCAR-5 complex spheroids with HUVEC/MSC, viability, % test/control
Experiment: Anticancer human tumor OVCAR-5 cell line growth inhibition [AhR];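 further: spheroids exposed to compounds for 7 days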;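 on viability, T/C: 100% = DMSO vehicle control wells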
Conditions: for IC50: curve of first compound; for viability, T/C: stronger effect = lower value
How it was run: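 Agents were dosed in half-log steps down from roughly clinical Cmax, or from 10 microM where Cmax was unknown, alone and with AhR antagonists. Read-out: percent test/control growth of tumor spheroids containing HUVEC and MSC stromal cells.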

[1] = second compound 0.1 µM, first compound 0.0316 µM
[2] = second compound 0.1 µM, first compound 0.1 µM
[3] = second compound 0.1 µM, first compound 0.316 µM
[4] = second compound 0.1 µM, first compound 1 µM
[5] = second compound 0.316 µM, first compound 0.0316 µM
[6] = second compound 0.316 µM, first compound 0.1 µM
[7] = second compound 0.316 µM, first compound 0.316 µM
[8] = second compound 0.316 µM, first compound 1 µM
[9] = second compound 1 µM, first compound 0.0316 µM
[10] = second compound 1 µM, first compound 0.1 µM
[11] = second compound 1 µM, first compound 0.316 µM
[12] = second compound 1 µM, first compound 1 µM
[13] = second compound 3.16 µM, first compound 0.0316 µM
[14] = second compound 3.16 µM, first compound 0.1 µM
[15] = second compound 3.16 µM, first compound 0.316 µM
[16] = second compound 3.16 µM, first compound 1 µM
[17] = second compound 10 µM, first compound 0.0316 µM
[18] = second compound 10 µM, first compound 0.1 µM
[19] = second compound 10 µM, first compound 0.316 µM
[20] = second compound 10 µM, first compound 1 µM
[21] = second compound 0.1 µM, first compound 3.16 µM
[22] = second compound 0.1 µM, first compound 10 µM
[23] = second compound 0.316 µM, first compound 3.16 µM
[24] = second compound 0.316 µM, first compound 10 µM
[25] = second compound 1 µM, first compound 3.16 µM
[26] = second compound 1 µM, first compound 10 µM
[27] = second compound 3.16 µM, first compound 3.16 µM
[28] = second compound 3.16 µM, first compound 10 µM
[29] = second compound 10 µM, first compound 3.16 µM
[30] = second compound 10 µM, first compound 10 µM
[31] = second compound 0.1 µM, first compound 0.00949 µM
[32] = second compound 0.1 µM, first compound 0.03 µM
[33] = second compound 0.1 µM, first compound 0.0949 µM
[34] = second compound 0.1 µM, first compound 0.3 µM
[35] = second compound 0.316 µM, first compound 0.00949 µM
[36] = second compound 0.316 µM, first compound 0.03 µM
[37] = second compound 0.316 µM, first compound 0.0949 µM
[38] = second compound 0.316 µM, first compound 0.3 µM
[39] = second compound 1 µM, first compound 0.00949 µM
[40] = second compound 1 µM, first compound 0.03 µM
[41] = second compound 1 µM, first compound 0.0949 µM
[42] = second compound 1 µM, first compound 0.3 µM
[43] = second compound 3.16 µM, first compound 0.00949 µM
[44] = second compound 3.16 µM, first compound 0.03 µM
[45] = second compound 3.16 µM, first compound 0.0949 µM
[46] = second compound 3.16 µM, first compound 0.3 µM
[47] = second compound 10 µM, first compound 0.00949 µM
[48] = second compound 10 µM, first compound 0.03 µM
[49] = second compound 10 µM, first compound 0.0949 µM
[50] = second compound 10 µM, first compound 0.3 µM

CC1COCCN1c1cc(-c2ccnn2C)c2ccnc(-c3ccn[nH]3)c2n1 (stereo not given) + Cc1cncc(-c2nc(NCCc3c[nH]c4ccccc34)c3ncn(C(C)C)c3n2)c1
IC50 (second compound 0.1 µM): 0.273 µM
IC50 (second compound 0.316 µM): 0.282 µM
IC50 (second compound 1 µM): 0.265 µM
IC50 (second compound 3.16 µM): 0.183 µM
IC50 (second compound 10 µM): < 0.00316 µM
viability, T/C (second compound 0.1 µM, first compound 0.00316 µM): 107%
viability, T/C (second compound 0.1 µM, first compound 0.01 µM): 103%
viability, T/C [1]: 103%
viability, T/C [2]: 83%
viability, T/C [3]: 45.2%
viability, T/C [4]: 32.9%
viability, T/C (second compound 0.316 µM, first compound 0.00316 µM): 106%
viability, T/C (second compound 0.316 µM, first compound 0.01 µM): 104%
viability, T/C [5]: 105%
viability, T/C [6]: 85%
viability, T/C [7]: 46.3%
viability, T/C [8]: 32.9%
viability, T/C (second compound 1 µM, first compound 0.00316 µM): 97.3%
viability, T/C (second compound 1 µM, first compound 0.01 µM): 99.2%
viability, T/C [9]: 100%
viability, T/C [10]: 78.2%
viability, T/C [11]: 45.6%
viability, T/C [12]: 33.9%
viability, T/C (second compound 3.16 µM, first compound 0.00316 µM): 80.8%
viability, T/C (second compound 3.16 µM, first compound 0.01 µM): 87.4%
viability, T/C [13]: 84.2%
viability, T/C [14]: 65.2%
viability, T/C [15]: 36.5%
viability, T/C [16]: 30.1%
viability, T/C (second compound 10 µM, first compound 0.00316 µM): 12.8%
viability, T/C (second compound 10 µM, first compound 0.01 µM): 12.8%
viability, T/C [17]: 13.7%
viability, T/C [18]: 10.6%
viability, T/C [19]: 6.62%
viability, T/C [20]: 7.97%

CC1COCCN1c1cc(C2(S(C)(=N)=O)CC2)nc(-c2ccnc3[nH]ccc23)n1 (stereo not given) + Cc1cncc(-c2nc(NCCc3c[nH]c4ccccc34)c3ncn(C(C)C)c3n2)c1
IC50 (second compound 0.1 µM): 9.78 µM
IC50 (second compound 0.316 µM): > 10 µM
IC50 (second compound 1 µM): 9.58 µM
IC50 (second compound 3.16 µM): 5.84 µM
IC50 (second compound 10 µM): < 0.0316 µM
viability, T/C [1]: 99.4%
viability, T/C [2]: 102%
viability, T/C [3]: 106%
viability, T/C [4]: 101%
viability, T/C [21]: 92%
viability, T/C [22]: 49.1%
viability, T/C [5]: 99.6%
viability, T/C [6]: 98.4%
viability, T/C [7]: 99.3%
viability, T/C [8]: 103%
viability, T/C [23]: 90%
viability, T/C [24]: 51.6%
viability, T/C [9]: 92%
viability, T/C [10]: 95.6%
viability, T/C [11]: 94.9%
viability, T/C [12]: 96.4%
viability, T/C [25]: 86%
viability, T/C [26]: 48.5%
viability, T/C [13]: 74.5%
viability, T/C [14]: 79.2%
viability, T/C [15]: 80.5%
viability, T/C [16]: 82.4%
viability, T/C [27]: 62.6%
viability, T/C [28]: 38.9%
viability, T/C [17]: 19.6%
viability, T/C [18]: 22.8%
viability, T/C [19]: 22.9%
viability, T/C [20]: 18.6%
viability, T/C [29]: 12.7%
viability, T/C [30]: 6.44%

COc1ccc([C@@H](O)c2cc(-c3ncnc4cc(N5CCOCC5)ccc34)c(F)cc2Cl)nn1 + Cc1cncc(-c2nc(NCCc3c[nH]c4ccccc34)c3ncn(C(C)C)c3n2)c1
IC50 (second compound 0.1 µM): 3.23 µM
IC50 (second compound 0.316 µM): 3.56 µM
IC50 (second compound 1 µM): 2.74 µM
IC50 (second compound 3.16 µM): 1.66 µM
IC50 (second compound 10 µM): < 0.0316 µM
viability, T/C [1]: 104%
viability, T/C [2]: 104%
viability, T/C [3]: 100%
viability, T/C [4]: 80.9%
viability, T/C [21]: 50.9%
viability, T/C [22]: 28.8%
viability, T/C [5]: 104%
viability, T/C [6]: 103%
viability, T/C [7]: 94%
viability, T/C [8]: 80%
viability, T/C [23]: 52%
viability, T/C [24]: 29.1%
viability, T/C [9]: 98.7%
viability, T/C [10]: 101%
viability, T/C [11]: 95%
viability, T/C [12]: 74.9%
viability, T/C [25]: 47.1%
viability, T/C [26]: 28.8%
viability, T/C [13]: 83.5%
viability, T/C [14]: 83.3%
viability, T/C [15]: 79.8%
viability, T/C [16]: 59.9%
viability, T/C [27]: 36.5%
viability, T/C [28]: 20%
viability, T/C [17]: 14.2%
viability, T/C [18]: 13.6%
viability, T/C [19]: 12.2%
viability, T/C [20]: 7.42%
viability, T/C [29]: 4.87%
viability, T/C [30]: 3.46%

Nc1ncn(C2CC(O)C(CO)S2)c(=O)n1 (stereo not given) + Cc1cncc(-c2nc(NCCc3c[nH]c4ccccc34)c3ncn(C(C)C)c3n2)c1
IC50 (second compound 0.1 µM): > 0.3 µM
IC50 (second compound 0.316 µM): > 0.3 µM
IC50 (second compound 1 µM): > 0.3 µM
IC50 (second compound 3.16 µM): > 0.3 µM
IC50 (second compound 10 µM): < 0.000949 µM
viability, T/C (second compound 0.1 µM, first compound 0.000949 µM): 99.8%
viability, T/C (second compound 0.1 µM, first compound 0.003 µM): 101%
viability, T/C [31]: 102%
viability, T/C [32]: 98.4%
viability, T/C [33]: 85.9%
viability, T/C [34]: 80.6%
viability, T/C (second compound 0.316 µM, first compound 0.000949 µM): 99.1%
viability, T/C (second compound 0.316 µM, first compound 0.003 µM): 101%
viability, T/C [35]: 96.8%
viability, T/C [36]: 93.1%
viability, T/C [37]: 85.5%
viability, T/C [38]: 78.2%
viability, T/C (second compound 1 µM, first compound 0.000949 µM): 87.8%
viability, T/C (second compound 1 µM, first compound 0.003 µM): 88.7%
viability, T/C [39]: 89.7%
viability, T/C [40]: 79.7%
viability, T/C [41]: 75.4%
viability, T/C [42]: 70.9%
viability, T/C (second compound 3.16 µM, first compound 0.000949 µM): 75.4%
viability, T/C (second compound 3.16 µM, first compound 0.003 µM): 76.3%
viability, T/C [43]: 75.5%
viability, T/C [44]: 79.6%
viability, T/C [45]: 63.2%
viability, T/C [46]: 62.7%
viability, T/C (second compound 10 µM, first compound 0.000949 µM): 18.3%
viability, T/C (second compound 10 µM, first compound 0.003 µM): 17.9%
viability, T/C [47]: 18%
viability, T/C [48]: 15.2%
viability, T/C [49]: 14.3%
viability, T/C [50]: 15.1%

O=C(C=Cn1cnc(-c2cc(C(F)(F)F)cc(C(F)(F)F)c2)n1)NNc1cnccn1 + Cc1cncc(-c2nc(NCCc3c[nH]c4ccccc34)c3ncn(C(C)C)c3n2)c1
IC50 (second compound 0.1 µM): 2.76 µM
IC50 (second compound 0.316 µM): > 3 µM
IC50 (second compound 1 µM): 2.43 µM
IC50 (second compound 3.16 µM): 1.45 µM
IC50 (second compound 10 µM): < 0.00949 µM
viability, T/C [31]: 105%
viability, T/C [32]: 108%
viability, T/C [33]: 102%
viability, T/C [34]: 87.4%
viability, T/C (second compound 0.1 µM, first compound 0.949 µM): 67.7%
viability, T/C (second compound 0.1 µM, first compound 3 µM): 48.4%
viability, T/C [35]: 107%
viability, T/C [36]: 109%
viability, T/C [37]: 107%
viability, T/C [38]: 86.4%
viability, T/C (second compound 0.316 µM, first compound 0.949 µM): 68.9%
viability, T/C (second compound 0.316 µM, first compound 3 µM): 49.8%
viability, T/C [39]: 105%
viability, T/C [40]: 108%
viability, T/C [41]: 106%
viability, T/C [42]: 89.4%
viability, T/C (second compound 1 µM, first compound 0.949 µM): 71%
viability, T/C (second compound 1 µM, first compound 3 µM): 45.3%
viability, T/C [43]: 98.1%
viability, T/C [44]: 99.5%
viability, T/C [45]: 99.6%
viability, T/C [46]: 79.8%
viability, T/C (second compound 3.16 µM, first compound 0.949 µM): 62%
viability, T/C (second compound 3.16 µM, first compound 3 µM): 31.8%
viability, T/C [47]: 16.3%
viability, T/C [48]: 15%
viability, T/C [49]: 15.9%
viability, T/C [50]: 16.4%
viability, T/C (second compound 10 µM, first compound 0.949 µM): 13.3%
viability, T/C (second compound 10 µM, first compound 3 µM): 12.6%
